EPA's CvTdb concentration-time database

Legend:
[1] = system: Rat; assay: concentration in plasma after dosing; conditions: 10 min; dosed: Gemfibrozil; 4.29 mg/kg; oral; Male; Sprague-Dawley
[2] = system: Rat; assay: concentration in plasma after dosing; conditions: 10 h; dosed: Gemfibrozil; 50 mg/kg; oral; Male; Sprague-Dawley
[3] = system: Rat; assay: concentration in plasma after dosing; conditions: 2 h; dosed: Gemfibrozil; 4.29 mg/kg; oral; Male; Sprague-Dawley
[4] = system: Rat; assay: concentration in plasma after dosing; conditions: 10 min; dosed: Gemfibrozil; 100 mg/kg; oral; Male; Sprague-Dawley
[5] = system: Rat; assay: concentration in plasma after dosing; conditions: 18 h; dosed: Gemfibrozil; 100 mg/kg; oral; Male; Sprague-Dawley
[6] = system: Rat; assay: concentration in plasma after dosing; conditions: 4 h; dosed: Gemfibrozil; 4.29 mg/kg; oral; Male; Sprague-Dawley
[7] = system: Rat; assay: concentration in plasma after dosing; conditions: 5 min; dosed: Gemfibrozil; 4.29 mg/kg; oral; Male; Sprague-Dawley
[8] = system: Rat; assay: concentration in plasma after dosing; conditions: 2 h; dosed: Gemfibrozil; 50 mg/kg; oral; Male; Sprague-Dawley
[9] = system: Rat; assay: concentration in kidney after dosing; conditions: 12 h; dosed: Fluorotelomer alcohol 8+2; 80 mg/kg; oral; Female; Harlan Sprague Dawley
[10] = system: Rat; assay: concentration in plasma after dosing; conditions: dosed: 678-39-7, 40 mg/kg, iv, Female, Harlan Sprague-Dawley
[11] = system: Rat; assay: concentration in brain after dosing; conditions: 6 h; dosed: Fluorotelomer alcohol 8+2; 24 mg/kg; oral; Male; Harlan Sprague Dawley
[12] = system: Rat; assay: concentration in liver after dosing; conditions: 3 h; dosed: Fluorotelomer alcohol 8+2; 24 mg/kg; oral; Male; Harlan Sprague Dawley
[13] = system: Rat; assay: concentration in brain after dosing; conditions: 3 h; dosed: Fluorotelomer alcohol 8+2; 80 mg/kg; oral; Female; Harlan Sprague Dawley
[14] = system: Rat; assay: concentration in liver after dosing; conditions: 1 h; dosed: Fluorotelomer alcohol 8+2; 80 mg/kg; oral; Female; Harlan Sprague Dawley
[15] = system: Rat; assay: concentration in liver after dosing; conditions: 12 h; dosed: Fluorotelomer alcohol 8+2; 80 mg/kg; oral; Female; Harlan Sprague Dawley
[16] = system: Rat; assay: concentration in kidney after dosing; conditions: 864 h; dosed: Perfluorooctane Sulfonate; 2 mg/kg; oral; Female; Harlan Sprague Dawley
[17] = system: Rat; assay: concentration in liver after dosing; conditions: 3360 h; dosed: Perfluorooctane Sulfonate; 20 mg/kg; oral; Male; Harlan Sprague Dawley
[18] = system: Rat; assay: concentration in liver after dosing; conditions: 24 h; dosed: Perfluorooctane Sulfonate; 20 mg/kg; oral; Female; F344
[19] = system: Rat; assay: concentration in kidney after dosing; conditions: 1848 h; dosed: Perfluorooctane Sulfonate; 2 mg/kg; oral; Female; Harlan Sprague Dawley
[20] = system: Rat; assay: concentration in liver after dosing; conditions: 24 h; dosed: Perfluorooctane Sulfonate; 2 mg/kg; oral; Female; Harlan Sprague Dawley
[21] = system: Rat; assay: concentration in brain after dosing; conditions: 3360 h; dosed: Perfluorooctane Sulfonate; 20 mg/kg; oral; Male; Harlan Sprague Dawley
[22] = system: Rat; assay: concentration in kidney after dosing; conditions: 6 h; dosed: Perfluorooctane Sulfonate; 2 mg/kg; oral; Female; Harlan Sprague Dawley
[23] = system: Rat; assay: concentration in liver after dosing; conditions: 864 h; dosed: Perfluorooctane Sulfonate; 20 mg/kg; oral; Male; Harlan Sprague Dawley
[24] = system: Rat; assay: concentration in liver after dosing; conditions: 24 h; dosed: Perfluorooctane Sulfonate; 20 mg/kg; oral; Male; Harlan Sprague Dawley
[25] = system: Rat; assay: concentration in liver after dosing; conditions: 864 h; dosed: Perfluorooctane Sulfonate; 20 mg/kg; oral; Male; Harlan Sprague Dawley; remark: listed apart in the source
[26] = system: Rat; assay: concentration in plasma after dosing; conditions: 864 h; dosed: Perfluorooctane Sulfonate; 2 mg/kg; oral; Female; Harlan Sprague Dawley
[27] = system: Rat; assay: concentration in kidney after dosing; conditions: 3360 h; dosed: Perfluorooctane Sulfonate; 20 mg/kg; oral; Male; Harlan Sprague Dawley
[28] = system: Rat; assay: concentration in liver after dosing; conditions: 3360 h; dosed: Perfluorooctane Sulfonate; 2 mg/kg; oral; Female; Harlan Sprague Dawley
[29] = system: Rat; assay: concentration in plasma after dosing; conditions: dosed: Perfluorooctane Sulfonate, 2 mg/kg, iv, Female, F344
[30] = system: Rat; assay: concentration in liver after dosing; conditions: 3360 h; dosed: Perfluorooctane Sulfonate; 2 mg/kg; oral; Female; Harlan Sprague Dawley; remark: listed apart in the source
[31] = system: Rat; assay: concentration in brain after dosing; conditions: 3360 h; dosed: Perfluorooctane Sulfonate; 20 mg/kg; oral; Male; Harlan Sprague Dawley; remark: listed apart in the source
[32] = system: Rat; assay: concentration in brain after dosing; conditions: 1.5 h; dosed: 2-Methyltetrahydrofuran; 40 mg/kg; iv; Male; Harlan Sprague Dawley
[33] = system: Rat; assay: concentration in brain after dosing; conditions: 2 min; dosed: 2-Methyltetrahydrofuran; 40 mg/kg; iv; Male; Harlan Sprague Dawley
[34] = system: Rat; assay: concentration in brain after dosing; conditions: 7 min; dosed: 2-Methyltetrahydrofuran; 40 mg/kg; iv; Male; Harlan Sprague Dawley
[35] = system: Rat; assay: concentration in plasma after dosing; conditions: 0.5 h; dosed: 2-Methyltetrahydrofuran; 40 mg/kg; iv; Male; Harlan Sprague Dawley
[36] = system: Rat; assay: concentration in plasma after dosing; conditions: 0.2 h; dosed: 2-Methyltetrahydrofuran; 40 mg/kg; iv; Male; Harlan Sprague Dawley
[37] = system: Rat; assay: concentration in liver after dosing; conditions: 0.5 h; dosed: Perfluorohexanoic Acid; 80 mg/kg; oral; Female; Harlan Sprague Dawley
[38] = system: Rat; assay: concentration in liver after dosing; conditions: 6 h; dosed: Perfluorohexanoic Acid; 80 mg/kg; oral; Male; Harlan Sprague Dawley
[39] = system: Rat; assay: concentration in plasma after dosing; conditions: 0.75 h; dosed: Perfluorohexanoic Acid; 40 mg/kg; iv; Female; Harlan Sprague-Dawley
[40] = system: Rat; assay: concentration in plasma after dosing; conditions: dosed: Perfluorohexanoic Acid, 40 mg/kg, iv, Male, F344
[41] = system: Rat; assay: concentration in plasma after dosing; conditions: 0.5 h; dosed: Perfluorohexanoic Acid; 80 mg/kg; oral; Male; Harlan Sprague Dawley

## Cc1ccc(C)c(OCCCC(C)(C)C(=O)O)c1 [Gemfibrozil]
[1]
  concentration in plasma: 657 ng/mL
[2]
  concentration in plasma: 4380 ng/mL
[3]
  concentration in plasma: 74.1 ng/mL
[4]
  concentration in plasma: 50400 ng/mL
[5]
  concentration in plasma: 3080 ng/mL
[6]
  concentration in plasma: 596 ng/mL
[7]
  concentration in plasma: 485 ng/mL
[8]
  concentration in plasma: 1970 ng/mL

## O=C(O)CCC(F)(F)C(F)(F)C(F)(F)C(F)(F)C(F)(F)C(F)(F)C(F)(F)F [Fluorotelomer acid 7+3]
[9]
  concentration in kidney: 3110 ng/g
[10]; 1 h
  concentration in plasma: 1350 ng/mL
[10]; 24 h
  concentration in plasma: 347 ng/mL
[11]
  concentration in brain: 179 ng/g
[12]
  concentration in liver: 2780 ng/g
[13]
  concentration in brain: 1310 ng/g
[14]
  concentration in liver: 1620 ng/g
[15]
  concentration in liver: 7200 ng/g

## O=S(=O)([O-])C(F)(F)C(F)(F)C(F)(F)C(F)(F)C(F)(F)C(F)(F)C(F)(F)C(F)(F)F [Perfluorooctane Sulfonate]
[16]
  concentration in kidney: 3420 ng/g
[17]
  concentration in liver: 15700 ng/g
[18]
  concentration in liver: 160000 ng/g
[19]
  concentration in kidney: 860 ng/g
[20]
  concentration in liver: 23800 ng/g
[21]
  concentration in brain: 890 ng/g
[22]
  concentration in kidney: 9250 ng/g
[23]
  concentration in liver: 97500 ng/g
[24]
  concentration in liver: 157000 ng/g
[25]
  concentration in liver: 98700 ng/g
[26]
  concentration in plasma: 1480 ng/mL
[27]
  concentration in kidney: 1110 ng/g
[28]
  concentration in liver: 3090 ng/g
[29]; 5 min
  concentration in plasma: 5590 ng/mL
[29]; 192 h
  concentration in plasma: 4170 ng/mL
[29]; 1704 h
  concentration in plasma: 940 ng/mL
[30]
  concentration in liver: 9920 ng/g
[31]
  concentration in brain: 1260 ng/g

## CC1CCCO1 (stereo not given) [2-Methyltetrahydrofuran]
[32]
  concentration in brain: 7300 ng/mL
[33]
  concentration in brain: 39000 ng/mL
[34]
  concentration in brain: 31000 ng/mL
[35]
  concentration in plasma: 25100 ng/mL
[36]
  concentration in plasma: 32200 ng/mL

## O=C(O)C(F)(F)C(F)(F)C(F)(F)C(F)(F)C(F)(F)F [Perfluorohexanoic Acid]
[37]
  concentration in liver: 23800 ng/g
[38]
  concentration in liver: 15400 ng/g
[39]
  concentration in plasma: 113 ng/mL
[40]; 0.5 h
  concentration in plasma: 14500 ng/mL
[40]; 12 h
  concentration in plasma: 35.7 ng/mL
[41]
  concentration in plasma: 105000 ng/mL
